In patent publication US20230115350A1 (Cedilla Therapeutics, Inc., priority 2021, published 2023) one finds GI50 and IC50 data, which are given here for 32 compounds.

One test relates to NCI-H226. Description: 72H TEAD Proliferation Assay (Cell Titer-Glo 2.0). Type of test: cell-based. The settings on record: CTG 2.0, cell line not given. On the procedure: The effect of TEAD inhibition on cell proliferation was assayed using Cell Titer Glo (CTG) 2.0 to measure response in mesothelioma cell lines NCI-H226 (ATCC, #CRL-5826) and NCI-H28 (ATCC, #CRL-5820).
The 72H TEAD Proliferation assay utilizes Cell Titer-Glo 2.0 (Promega, #G9243) to measure the proliferation of cells in the presence or absence of compound. Cell Titer-Glo 2.0 determines the amount of viable cells by quantifying ATP (an indication of metabolically active cells). It utilizes the conversion of Luciferin to Oxyluciferin and a luminescent signal with the use of ATP to report the quantity of viable cells in culture. Within cells that are continually growing, ATP is being synthesized to meet their metabolic demands, meanwhile the opposite is true for cells that are dying or slowing down their proliferation and either no longer using ATP or are using less, respectively. The NF2-deficient NCI-H226 has been genetically validated as a cell line that is sensitive to TEAD inhibition. The NF2-wild type NCI-H28 has been genetically validated as a cell line that is not sensitive to TEAD inhibition and grows independently of TEAD activity.
Compounds were screened against the responsive NCI-H226 cell line to assess the compounds' ability to inhibit TEAD and cell growth. Compounds were also screened against the non-responsive NCI-H28 cell line to ascertain whether the inhibition of cell growth was due to inhibition of the target TEAD or whether the inhibition was due to off-target cytotoxicity.
1) Assay ready plates (ARPs) were prepared by Echo acoustic liquid handler. For each compound, duplicate of 10-point half-log dilution series were dispensed in a 384-well microplate (Corning 3571).
5) NCI-H226 or NCI-H28 cells were harvested from culture in Assay Medium 1 and the multidrop Combi reagent dispenser was used to seed cells at 500 cells per 50 ul in each well of the ARPs and one Corning 3571 plate without compounds for Time 0 (TO) readout.
6) The TO plate was incubated for 2 hours at 37° C. with 5% CO2 to allow cells to settle, then the CTG Assay was performed.
7) All ARPs were incubated for 72 hours at 37° C. with 5% CO2, then the CTG Assay was performed for Time 72H (T72) readout.
8) CTG Assay: Bravo liquid handler (Agilent) was used to add 25 ul of CTG 2.0 to all columns of the plate except for Column 24, which was used to subtract out the background. After CTG addition, plates were placed on shaker at 800 RPM for 15 minutes at room temperature and kept in the dark. Luminescence was measured using EnVision multilabel plate reader with ultra-sensitive detection module.
9) Data Analysis: First background luminescence (no CTG wells) was subtracted from luminescence reading of all wells, then TO luminescence was subtracted from T72 luminescence. To compare anti-proliferative effect of compounds, GI50 was obtained by fitting dose response curves with nonlinear regression curve fit.
A general note: In ATP-based viability assays light output follows the ATP content of the culture.

Test [1] addresses TEAD1 protein (YAP Binding Domain) (Homo sapiens, UniProt P28347). In words: TEAD1 lipid pocket compound displacement assay (TR-FRET, Cy5-probe). The settings on record: 60 minutes incubation at room temperature; TR-FRET 665 nm/620 nm; read-out: CDA IC50. The gist of the method: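 His-tagged TEAD1 YAP-binding domain pre-mixed with a Cy5-labelled lipid-pocket probe and Tb-anti-His antibody; compounds incubated with the complex 60 min at room temperature. TR-FRET read at 665/620 nm; IC50 from 4-parameter non-linear fit of probe displacement.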

In general, GI50 refers to the concentration giving 50% growth inhibition. A higher GI50 goes with lower sensitivity of the cells. The term IC50 denotes the concentration that inhibits the measured activity by half.

Bounds are passed on as bounds.

Chain of TEAD1 protein (YAP Binding Domain) (P28347 209-426 limits assumed): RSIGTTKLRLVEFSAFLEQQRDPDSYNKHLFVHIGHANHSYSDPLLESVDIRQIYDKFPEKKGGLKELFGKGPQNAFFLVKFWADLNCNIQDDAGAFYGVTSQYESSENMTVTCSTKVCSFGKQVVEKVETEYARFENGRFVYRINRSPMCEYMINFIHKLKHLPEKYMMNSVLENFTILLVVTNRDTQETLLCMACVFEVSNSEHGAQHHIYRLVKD

As to `C=CC(=O)Nc1ccc(C2COc3ccccc3C2)c(F)c1` (stereo not shown) [Compound 120, N-(4-(chroman-3-yl)-3-fluorophenyl)acrylamide], the GI50 with NCI-H226 (Homo sapiens, NCI-H226, 72 h) is over 3 µM. For the same compound, in test [1], the IC50 is 0.25 to 0.5 µM.
For `C=CC(=O)Nc1ccc(OCc2csc3ccccc23)c(F)c1` [Compound 60, N-(4-(benzo[b]thiophen-3-ylmethoxy)-3-fluorophenyl)acrylamide], in that order: over 3 µM and 0.5 to 2 µM.
For `C=CC(=O)Nc1ccc(OCc2ccc(C#N)s2)c(F)c1` [Compound 63, N-(4-((5-cyanothiophen-2-yl)methoxy)-3-fluorophenyl)acrylamide], in that order: 1 to 3 µM and 0.5 to 2 µM.
For `C=CC(=O)Nc1ccc(OCc2ccc(F)c(F)c2)c(C#N)c1` [Compound 40, N-(3-cyano-4-((3,4-difluorobenzyl)oxy)phenyl)acrylamide], in that order: 1 to 3 µM and 0.5 to 2 µM.
In the case of `C=CC(=O)Nc1ccc(OCC2CCCCC2)c(F)c1` [Compound 55, N-(4-(cyclohexylmethoxy)-3-fluorophenyl)acrylamide], in the test with NCI-H226 (Homo sapiens, NCI-H226, 72 h), the GI50 was in the range of 0.25 to 1 µM. Besides, the IC50 in test [1] is at most 0.25 µM.
For `C=CC(=O)Nc1ccc(OCc2ccc(F)cc2Cl)c(F)c1` [Compound 84, N-(4-((2-chloro-4-fluorobenzyl)oxy)-3-fluorophenyl)acrylamide], in that order: 1 to 3 µM and 0.5 to 2 µM.
Taken in the same sequence, the figures for `C=CC(=O)Nc1ccc(OCC2CCC(F)(F)CC2)c(C#N)c1` [Compound 50, N-(3-cyano-4-((4,4-difluorocyclohexyl)methoxy)phenyl)acrylamide] were at most 0.25 µM and at most 0.25 µM.
In turn, `C=CC(=O)Nc1ccc(OCc2ccnc(C(F)(F)F)c2)c(F)c1` [Compound 116, N-(3-fluoro-4-((2-(trifluoromethyl)pyridin-4-yl)methoxy)phenyl)acrylamide] had a GI50 with NCI-H226 (Homo sapiens, NCI-H226, 72 h) of 0.25 to 1 µM. Besides, the IC50 in test [1] was in the range of 0.25 to 0.5 µM.
For `C=CC(=O)Nc1ccc(CCc2cccc(F)c2)c(F)c1` [Compound 1, N-(3-fluoro-4-(3-fluorophenethyl)phenyl)acrylamide], in that order: 1 to 3 µM and at most 0.25 µM.
For `C=CC(=O)Nc1ccc(Oc2ccccc2)c(F)c1` [Compound 112, N-(3-fluoro-4-phenoxyphenyl)acrylamide], in that order: over 3 µM and 0.25 to 0.5 µM.
`C=CC(=O)Nc1ccc(OCc2cccc(F)c2)c(C(F)(F)F)c1` [Compound 9, N-(4-((3-fluorobenzyl)oxy)-3-(trifluoromethyl)phenyl)acrylamide] returned a GI50 in the test with NCI-H226 (Homo sapiens, NCI-H226, 72 h) of over 3 µM. Also, the IC50 in test [1] is at most 0.25 µM.
Taken in the same sequence, the figures for `C=CC(=O)Nc1ccc(OCC2CCC(F)(F)CC2)c2ocnc12` [Compound 21, N-(7-((4,4-difluorocyclohexyl)methoxy)benzo[d]oxazol-4-yl)acrylamide] were at most 0.25 µM and at most 0.25 µM.
For `C=CC(=O)Nc1ccc(NCC2CCC(F)(F)CC2)c(F)c1` [Compound 109, N-(4-(((4,4-difluorocyclohexyl)methyl)amino)-3-fluorophenyl)acrylamide], in that order: 0.25 to 1 µM and 0.25 to 0.5 µM.
Compound `C=CC(=O)Nc1ccc(OCCC(F)(F)F)c(F)c1` [Compound 103, N-(3-fluoro-4-(3,3,3-trifluoropropoxy)phenyl)acrylamide] displayed a 50% growth inhibitory concentration (GI50) in the test with NCI-H226 (Homo sapiens, NCI-H226, 72 h) of 1 to 3 µM. Further, the IC50 in test [1] is over 2 µM.
Taken in the same sequence, the figures for `C=C(F)C(=O)Nc1ccc(OCC2CCC(F)(F)CC2)c(F)c1` [Compound 149, N-(4-((4,4-difluorocyclohexyl)methoxy)-3-fluorophenyl)-2-fluoroacrylamide] were at most 0.25 µM and 0.25 to 0.5 µM.
Taken in the same sequence, the figures for `C=CC(=O)Nc1ccc(OCC2CCC(F)(F)CC2)cc1C#N` [Compound 20, N-(2-cyano-4-((4,4-difluorocyclohexyl)methoxy)phenyl)acrylamide] were 0.25 to 1 µM and at most 0.25 µM.
For `C=CC(=O)Nc1ccc(OCc2cccc(C(F)(F)F)c2)c(C#N)c1` [Compound 38, N-(3-cyano-4-((3-(trifluoromethyl)benzyl)oxy)phenyl)acrylamide], in that order: 1 to 3 µM and 0.5 to 2 µM.
`C=CC(=O)Nc1ccc(Oc2cccc(C(C)(C)C)c2)c(F)c1` [Compound 110, N-(4-(3-(tert-butyl)phenoxy)-3-fluorophenyl)acrylamide]: in the test with NCI-H226 (Homo sapiens, NCI-H226, 72 h), the GI50 lay within 1 to 3 µM. Also, in test [1], the IC50 is 0.25 to 0.5 µM.
Consider `C=CC(=O)Nc1cc2nc(C3CCC(F)(F)CC3)oc2cc1F` [Compound 135, N-(2-(4,4-difluorocyclohexyl)-6-fluorobenzo[d]oxazol-5-yl)acrylamide], for which the GI50 in the test on NCI-H226 was at most 0.25 µM. In addition, the IC50 in test [1] was in the range of 0.5 to 2 µM.
With `C=CC(=O)Nc1ccc(OCc2cc(F)ccc2Cl)c(F)c1` [Compound 78, N-(4-((2-chloro-5-fluorobenzyl)oxy)-3-fluorophenyl)acrylamide], the GI50 in the test with NCI-H226 (Homo sapiens, NCI-H226, 72 h) is over 3 µM. Besides, the IC50 in test [1] fell in the range of 0.5 to 2 µM.
Taken in the same sequence, the figures for `C=CC(=O)Nc1ccc(Oc2ccc(C(C)(C)C)cc2)c(F)c1` [Compound 111, N-(4-(4-(tert-butyl)phenoxy)-3-fluorophenyl)acrylamide] were 0.25 to 1 µM and at most 0.25 µM.
Turning to `C=CC(=O)Nc1cc2nc(CC3CCC(F)(F)CC3)oc2cc1F` [Compound 136, N-(2-((4,4-difluorocyclohexyl)methyl)-6-fluorobenzo[d]oxazol-5-yl)acrylamide], in the test with NCI-H226 (Homo sapiens, NCI-H226, 72 h), the GI50 fell in the range of 0.25 to 1 µM. The IC50 in test [1] is 0.25 to 0.5 µM.
For `C=CC(=O)Nc1ccc(OCC2CCOCC2)c(F)c1` [Compound 54, N-(3-fluoro-4-((tetrahydro-2H-pyran-4-yl)methoxy)phenyl)acrylamide], in that order: 1 to 3 µM and over 2 µM.
For `C=CC(=O)Nc1ccc(OCC2CCC(F)(F)CC2)c2ccncc12` [Compound 19, N-(5-((4,4-difluorocyclohexyl)methoxy)isoquinolin-8-yl)acrylamide], in that order: over 3 µM and over 2 µM.
For `C=CC(=O)Nc1cc2nc(CCC(C)C)oc2cc1F` [Compound 132, N-(6-fluoro-2-isopentylbenzo[d]oxazol-5-yl)acrylamide], in that order: at most 0.25 µM and 0.25 to 0.5 µM.
In turn, `C=CC(=O)Nc1ccc(Oc2cccc(F)c2)c(F)c1` [Compound 106, N-(3-fluoro-4-(3-fluorophenoxy)phenyl)acrylamide] returned a GI50 with NCI-H226 (Homo sapiens, NCI-H226, 72 h) of over 3 µM. The IC50 in test [1] is at most 0.25 µM.
For `C=CC(=O)Nc1ccc(-c2ccc(C(F)(F)F)cc2)c2ncccc12` [Compound 150, N-(8-(4-(trifluoromethyl)phenyl)quinolin-5-yl)acrylamide], in that order: at most 0.25 µM and at most 0.25 µM.
Taken in the same sequence, the figures for `C=CC(=O)Nc1ccc(Oc2cccc(C)c2)c(F)c1` [Compound 113, N-(3-fluoro-4-(m-tolyloxy)phenyl)acrylamide] were 1 to 3 µM and at most 0.25 µM.
Taken in the same sequence, the figures for `C=CC(=O)Nc1ccc2oc(CCCC(C)C)nc2c1F` [Compound 141, N-(4-fluoro-2-(4-methylpentyl)benzo[d]oxazol-5-yl)acrylamide] were 0.25 to 1 µM and 0.25 to 0.5 µM.
In the case of `C=CC(=O)Nc1ccc(Nc2ccc(F)cc2)c(F)c1` [Compound 108, N-(3-fluoro-4-((4-fluorophenyl)amino)phenyl)acrylamide], the GI50 in the test with NCI-H226 (Homo sapiens, NCI-H226, 72 h) is 0.25 to 1 µM. The IC50 in test [1] was over 2 µM.
For `C=CC(=O)Nc1ccc(OCC2CCC(F)(F)CC2)c2ccnn12` [Compound 23, N-(4-((4,4-difluorocyclohexyl)methoxy)pyrazolo[1,5-a]pyridin-7-yl)acrylamide], in that order: 1 to 3 µM and at most 0.25 µM.
`C=CC(=O)Nc1ccc(OCc2cncc(C(F)(F)F)c2)c(C#N)c1` [Compound 41, N-(3-cyano-4-((5-(trifluoromethyl)pyridin-3-yl)methoxy)phenyl)acrylamide] registered a GI50 in the test on NCI-H226 (Homo sapiens, NCI-H226, 72 h) of over 3 µM. For the same compound, in test [1], the IC50 was over 2 µM.
